{"source": "PubChem BioAssay (NCI)", "assay_in_all_cases": "NCI anticancer screen, dose series, 48 h", "key": {"[1]": {"test_system": "SNB-75 CNS"}, "[2]": {"test_system": "SW-620 colon"}, "[3]": {"test_system": "KM12 colon"}, "[4]": {"test_system": "OVCAR-3 ovarian"}, "[5]": {"test_system": "MDA-N"}, "[6]": {"test_system": "SF-268 CNS"}, "[7]": {"test_system": "NCI-H460 lung"}, "[8]": {"test_system": "HOP-92 NSCLC"}, "[9]": {"test_system": "HL-60(TB) leukemia"}, "[10]": {"test_system": "SK-MEL-5 melanoma"}, "[11]": {"test_system": "NCI-H522 lung"}, "[12]": {"test_system": "NCI-H226 lung"}, "[13]": {"test_system": "HCC-2998 colon"}, "[14]": {"test_system": "K-562 leukemia"}, "[15]": {"test_system": "A498 renal"}, "[16]": {"test_system": "UO-31 renal"}, "[17]": {"test_system": "SK-MEL-28 melanoma"}, "[18]": {"test_system": "M14 melanoma"}, "[19]": {"test_system": "RXF 393 renal"}, "[20]": {"test_system": "LOX IMVI melanoma"}, "[21]": {"test_system": "OVCAR-8 ovarian"}, "[22]": {"test_system": "HT29 colon"}, "[23]": {"test_system": "HCT-116 colon"}, "[24]": {"test_system": "UACC-257 melanoma"}, "[25]": {"test_system": "ACHN renal"}, "[26]": {"test_system": "TK-10 renal"}, "[27]": {"test_system": "HOP-62 NSCLC"}, "[28]": {"test_system": "MDA-MB-435"}, "[29]": {"test_system": "DU-145 prostate"}, "[30]": {"test_system": "SK-OV-3 ovarian"}, "[31]": {"test_system": "MCF7 breast"}, "[32]": {"test_system": "CAKI-1 renal"}, "[33]": {"test_system": "SK-MEL-2 melanoma"}, "[34]": {"test_system": "CCRF-CEM leukemia"}, "[35]": {"test_system": "RPMI-8226 leukemia"}, "[36]": {"test_system": "MOLT-4 leukemia"}, "[37]": {"test_system": "HCT-15 colon"}, "[38]": {"test_system": "SF-295 CNS"}, "[39]": {"test_system": "T-47D breast"}, "[40]": {"test_system": "MDA-MB-231 breast"}, "[41]": {"test_system": "NCI-H23 lung"}, "[42]": {"test_system": "EKVX NSCLC"}, "[43]": {"test_system": "U251 CNS"}, "[44]": {"test_system": "PC-3 prostate"}, "[45]": {"test_system": "SR leukemia"}, "[46]": {"test_system": "NCI/ADR-RES ovarian"}, "[47]": {"test_system": "IGROV1 ovarian"}, "[48]": {"test_system": "OVCAR-5 ovarian"}, "[49]": {"test_system": "786-0 renal"}, "[50]": {"test_system": "HS 578T breast"}, "[51]": {"test_system": "SF-539 CNS"}, "[52]": {"test_system": "OVCAR-4 ovarian"}, "[53]": {"test_system": "SN12C renal"}, "[54]": {"test_system": "COLO 205 colon"}, "[55]": {"test_system": "SNB-19 CNS"}, "[56]": {"test_system": "MALME-3M melanoma"}, "[57]": {"test_system": "UACC-62 melanoma"}}, "note": "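Each compound was tested at five concentrations against cells in 96-well plates for 48 hours. TGI: concentration producing complete growth inhibition.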"}
{"smiles": "CC1=NN(c2cccc(Cl)c2)C2(SCC(=O)N2c2nc3ccccc3s2)/C1=C\\c1ccccc1", "note": "(centres undefined)", "values": [{"measurement": "TGI", "setting": "[1]", "result": "> 100", "unit": "µM"}, {"measurement": "TGI", "setting": "[2]", "result": 37.3, "unit": "µM"}, {"measurement": "TGI", "setting": "[3]", "result": 32.2, "unit": "µM"}, {"measurement": "TGI", "setting": "[4]", "result": "> 100", "unit": "µM"}, {"measurement": "TGI", "setting": "[5]", "result": 42.3, "unit": "µM"}, {"measurement": "TGI", "setting": "[6]", "result": 54.4, "unit": "µM"}, {"measurement": "TGI", "setting": "[7]", "result": 32.4, "unit": "µM"}, {"measurement": "TGI", "setting": "[8]", "result": 25.6, "unit": "µM"}, {"measurement": "TGI", "setting": "[9]", "result": 67.7, "unit": "µM"}, {"measurement": "TGI", "setting": "[10]", "result": 30.3, "unit": "µM"}, {"measurement": "TGI", "setting": "[11]", "result": 34.6, "unit": "µM"}, {"measurement": "TGI", "setting": "[12]", "result": 97.4, "unit": "µM"}, {"measurement": "TGI", "setting": "[13]", "result": 29.3, "unit": "µM"}, {"measurement": "TGI", "setting": "[14]", "result": 54.4, "unit": "µM"}, {"measurement": "TGI", "setting": "[15]", "result": 51.8, "unit": "µM"}, {"measurement": "TGI", "setting": "[16]", "result": 63.6, "unit": "µM"}, {"measurement": "TGI", "setting": "[17]", "result": "> 100", "unit": "µM"}, {"measurement": "TGI", "setting": "[18]", "result": 70.1, "unit": "µM"}, {"measurement": "TGI", "setting": "[19]", "result": 40.6, "unit": "µM"}, {"measurement": "TGI", "setting": "[20]", "result": 66.6, "unit": "µM"}, {"measurement": "TGI", "setting": "[21]", "result": 45.7, "unit": "µM"}, {"measurement": "TGI", "setting": "[22]", "result": 44.8, "unit": "µM"}, {"measurement": "TGI", "setting": "[23]", "result": 29.4, "unit": "µM"}, {"measurement": "TGI", "setting": "[24]", "result": 85.2, "unit": "µM"}, {"measurement": "TGI", "setting": "[25]", "result": 48.4, "unit": "µM"}, {"measurement": "TGI", "setting": "[26]", "result": "> 100", "unit": "µM"}, {"measurement": "TGI", "setting": "[27]", "result": 56.7, "unit": "µM"}, {"measurement": "TGI", "setting": "[28]", "result": 38.9, "unit": "µM"}, {"measurement": "TGI", "setting": "[29]", "result": 45.3, "unit": "µM"}, {"measurement": "TGI", "setting": "[30]", "result": 55.1, "unit": "µM"}, {"measurement": "TGI", "setting": "[31]", "result": 84.3, "unit": "µM"}, {"measurement": "TGI", "setting": "[32]", "result": 53, "unit": "µM"}, {"measurement": "TGI", "setting": "[33]", "result": 46.7, "unit": "µM"}, {"measurement": "TGI", "setting": "[34]", "result": "> 100", "unit": "µM"}, {"measurement": "TGI", "setting": "[35]", "result": 46.8, "unit": "µM"}, {"measurement": "TGI", "setting": "[36]", "result": 60.2, "unit": "µM"}, {"measurement": "TGI", "setting": "[37]", "result": 37.4, "unit": "µM"}, {"measurement": "TGI", "setting": "[38]", "result": 81.2, "unit": "µM"}, {"measurement": "TGI", "setting": "[39]", "result": "> 100", "unit": "µM"}, {"measurement": "TGI", "setting": "[40]", "result": 55.5, "unit": "µM"}, {"measurement": "TGI", "setting": "[41]", "result": 51.9, "unit": "µM"}, {"measurement": "TGI", "setting": "[42]", "result": "> 100", "unit": "µM"}, {"measurement": "TGI", "setting": "[43]", "result": 44.3, "unit": "µM"}, {"measurement": "TGI", "setting": "[44]", "result": 64.2, "unit": "µM"}, {"measurement": "TGI", "setting": "[45]", "result": 63.3, "unit": "µM"}, {"measurement": "TGI", "setting": "[46]", "result": 83.3, "unit": "µM"}, {"measurement": "TGI", "setting": "[47]", "result": 58.7, "unit": "µM"}, {"measurement": "TGI", "setting": "[48]", "result": 58.8, "unit": "µM"}, {"measurement": "TGI", "setting": "[49]", "result": 31, "unit": "µM"}, {"measurement": "TGI", "setting": "[50]", "result": 55.4, "unit": "µM"}, {"measurement": "TGI", "setting": "[51]", "result": "> 100", "unit": "µM"}, {"measurement": "TGI", "setting": "[52]", "result": 62.7, "unit": "µM"}]}
{"smiles": "Cc1coc2c1[C@@H](O)[C@@]1(C)[C@H](CCC[C@@H]1C)C2", "values": [{"measurement": "TGI", "setting": "[2]", "result": "> 100", "unit": "µM"}, {"measurement": "TGI", "setting": "[3]", "result": "> 100", "unit": "µM"}, {"measurement": "TGI", "setting": "[4]", "result": 64.8, "unit": "µM"}, {"measurement": "TGI", "setting": "[5]", "result": 64.1, "unit": "µM"}, {"measurement": "TGI", "setting": "[6]", "result": "> 100", "unit": "µM"}, {"measurement": "TGI", "setting": "[7]", "result": "> 100", "unit": "µM"}, {"measurement": "TGI", "setting": "[8]", "result": "> 100", "unit": "µM"}, {"measurement": "TGI", "setting": "[9]", "result": 62, "unit": "µM"}, {"measurement": "TGI", "setting": "[10]", "result": 77.5, "unit": "µM"}, {"measurement": "TGI", "setting": "[11]", "result": 73.5, "unit": "µM"}, {"measurement": "TGI", "setting": "[12]", "result": 76.3, "unit": "µM"}, {"measurement": "TGI", "setting": "[13]", "result": "> 100", "unit": "µM"}, {"measurement": "TGI", "setting": "[14]", "result": 74.7, "unit": "µM"}, {"measurement": "TGI", "setting": "[17]", "result": "> 100", "unit": "µM"}, {"measurement": "TGI", "setting": "[18]", "result": 43.9, "unit": "µM"}, {"measurement": "TGI", "setting": "[19]", "result": 55, "unit": "µM"}, {"measurement": "TGI", "setting": "[20]", "result": "> 100", "unit": "µM"}, {"measurement": "TGI", "setting": "[21]", "result": 47.8, "unit": "µM"}, {"measurement": "TGI", "setting": "[22]", "result": "> 100", "unit": "µM"}, {"measurement": "TGI", "setting": "[23]", "result": "> 100", "unit": "µM"}, {"measurement": "TGI", "setting": "[24]", "result": 84.3, "unit": "µM"}, {"measurement": "TGI", "setting": "[53]", "result": 75.7, "unit": "µM"}, {"measurement": "TGI", "setting": "[25]", "result": "> 100", "unit": "µM"}, {"measurement": "TGI", "setting": "[54]", "result": 60.1, "unit": "µM"}, {"measurement": "TGI", "setting": "[26]", "result": "> 100", "unit": "µM"}, {"measurement": "TGI", "setting": "[27]", "result": 93.2, "unit": "µM"}, {"measurement": "TGI", "setting": "[28]", "result": 38.1, "unit": "µM"}, {"measurement": "TGI", "setting": "[55]", "result": "> 100", "unit": "µM"}, {"measurement": "TGI", "setting": "[29]", "result": "> 100", "unit": "µM"}, {"measurement": "TGI", "setting": "[30]", "result": "> 100", "unit": "µM"}, {"measurement": "TGI", "setting": "[31]", "result": "> 100", "unit": "µM"}, {"measurement": "TGI", "setting": "[32]", "result": "> 100", "unit": "µM"}, {"measurement": "TGI", "setting": "[34]", "result": "> 100", "unit": "µM"}, {"measurement": "TGI", "setting": "[35]", "result": 90.6, "unit": "µM"}, {"measurement": "TGI", "setting": "[36]", "result": 89.4, "unit": "µM"}, {"measurement": "TGI", "setting": "[37]", "result": "> 100", "unit": "µM"}, {"measurement": "TGI", "setting": "[38]", "result": "> 100", "unit": "µM"}, {"measurement": "TGI", "setting": "[39]", "result": "> 100", "unit": "µM"}, {"measurement": "TGI", "setting": "[40]", "result": 59.3, "unit": "µM"}, {"measurement": "TGI", "setting": "[41]", "result": "> 100", "unit": "µM"}, {"measurement": "TGI", "setting": "[56]", "result": 99, "unit": "µM"}, {"measurement": "TGI", "setting": "[42]", "result": "> 100", "unit": "µM"}, {"measurement": "TGI", "setting": "[44]", "result": "> 100", "unit": "µM"}, {"measurement": "TGI", "setting": "[45]", "result": "> 100", "unit": "µM"}, {"measurement": "TGI", "setting": "[46]", "result": 54.5, "unit": "µM"}, {"measurement": "TGI", "setting": "[47]", "result": "> 100", "unit": "µM"}, {"measurement": "TGI", "setting": "[48]", "result": "> 100", "unit": "µM"}, {"measurement": "TGI", "setting": "[49]", "result": "> 100", "unit": "µM"}, {"measurement": "TGI", "setting": "[50]", "result": "> 100", "unit": "µM"}, {"measurement": "TGI", "setting": "[51]", "result": 47, "unit": "µM"}, {"measurement": "TGI", "setting": "[57]", "result": "> 100", "unit": "µM"}, {"measurement": "TGI", "setting": "[52]", "result": "> 100", "unit": "µM"}]}
